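Test compounds were applied to cells in 96-well plates for 48 hours at 5 doses. At the GI50, growth is halved.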 Activity calls are given as the source filed them. Cut-off read from the data, not from the text of the source: active = GI50 up to about 1.1 µM and inactive = higher. Where a SMILES comes first, the peptide text is derived from it. Peptide text beside a SMILES is read from it. [ ]: non-standard residue; d: D form. The star is where a group is joined. ξ: configuration not given here. ξD = NC(CC(=O)O)C(=O)O; Ac3c = NC1(C(=O)O)CC1; Boc = CC(C)(C)OC(=O)*; OBn = c1ccc(CO*)cc1

Some test systems named below: DU-145; RPMI-8226; NCI/ADR-RES; BT-549; CAKI-1; M14; HCT-15; COLO 205; Hs-578T; SF-268; IGROV-1; MDA-MB-231; UACC-257; SK-OV-3; NCI-H226; K562; MDA-MB-435; 786-0; RXF 393.
Common to all, as to experiment: NCI anticancer screen, dose series, 48 h

Consider `CC(=O)NC(CS)C(=O)NC(CO)C(=O)NC(CO)C(=O)NC(Cc1c[nH]c2ccccc12)C(=O)N1CCCC1C(=O)NC(CO)C(=O)NC(Cc1c[nH]c2ccccc12)C(=O)NC(Cc1c[nH]cn1)C(=O)NC(CO)C(=O)NC(Cc1c[nH]c2ccccc12)C(=O)NCC(=O)NCC(=O)NC(C)C(=O)NC(CCC(N)=O)C(=O)NC(CCCCN)C(=O)NC(C)C(=O)NC(CCCNC(=N)N)C(=O)NC(CCCCN)C(N)=O` (stereo not given) (Ac-CSSWPSWHSWGGAQKARK-NH2; configuration not given here), for which the GI50 in the test on DU-145 is 16.8 µM (inactive); with RPMI-8226 it was 39 µM (inactive); in the test with NCI/ADR-RES it was > 50 µM (inactive); with BT-549, 14.4 µM (inactive); in the test on CAKI-1, 11.9 µM (inactive); in the test with M14 it was 23.2 µM (inactive). Also, the GI50 was 41.3 µM in the test with HCT-15; 12.8 µM (inactive) with COLO 205; 29.2 µM (inactive) with Hs-578T; 16.7 µM (inactive) in the test with SF-268; > 50 µM (inactive) in the test with IGROV-1; 8.49 µM (inactive) in the test on MDA-MB-231. Moreover, the GI50 in the test with UACC-257 is 10 µM (inactive); in the test on SK-OV-3 it was > 50 µM (inactive); in the test on NCI-H226 it was > 50 µM (inactive); in the test on K562, 10.3 µM (inactive); in the test with MDA-MB-435, 15.7 µM (inactive); with 786-0, 10.1 µM (inactive). Also, the GI50 in the test on RXF 393 is 10 µM (inactive).

For `CCCCC[C@H](O)[C@H](C)C=C1SCCCS1`, the GI50 with DU-145, in the test with RPMI-8226, in the test on NCI/ADR-RES, in the test on BT-549, with CAKI-1 and with M14 was > 100 µM (inactive) in each case. Besides, the GI50 was > 100 µM in the test on HCT-15; > 100 µM (inactive) with COLO 205; > 100 µM (inactive) in the test with Hs-578T; > 100 µM (inactive) with SF-268; > 100 µM (inactive) in the test on IGROV-1; > 100 µM (inactive) in the test with MDA-MB-231. Further, the GI50 with UACC-257, in the test on SK-OV-3, in the test with NCI-H226, in the test with K562, in the test with MDA-MB-435 and in the test with 786-0 was > 100 µM (inactive) throughout. Also, in the test with RXF 393, the GI50 is > 100 µM (inactive).

As for `COC(=O)C1(NC(=O)C(CC(=O)OCc2ccccc2)NC(=O)OC(C)(C)C)CC1` (stereo not given) (Boc-[ξD](OBn)-[Ac3c]-OMe), the GI50 with DU-145, in the test on RPMI-8226, in the test with NCI/ADR-RES, in the test on BT-549, in the test on CAKI-1 and with M14 was > 100 µM (inactive) in each case. Also, the GI50 in the test with HCT-15 was > 100 µM; in the test on COLO 205 it was > 100 µM (inactive); in the test with Hs-578T, > 100 µM (inactive); in the test with SF-268, > 100 µM (inactive); in the test with IGROV-1, > 100 µM (inactive); in the test on MDA-MB-231, > 100 µM (inactive). Moreover, the GI50 with UACC-257 is > 100 µM (inactive); in the test on SK-OV-3, 19.6 µM (inactive); in the test on NCI-H226, > 100 µM (inactive); in the test on K562, > 100 µM (inactive); with MDA-MB-435 it was > 100 µM (inactive); in the test on 786-0 it was > 100 µM (inactive). In addition, the GI50 in the test on RXF 393 was > 100 µM (inactive).

On to `CCC1(CC)C(=O)N(C(=O)c2cc(OC)c(OC)c(OC)c2)N(C(=O)c2cc(OC)c(OC)c(OC)c2)C1=O`, for which the GI50 in the test with DU-145, with RPMI-8226, with NCI/ADR-RES, in the test with BT-549, in the test on CAKI-1 and with M14 was > 50 µM (inactive) in each case. Besides, the GI50 in the test on HCT-15 is > 50 µM; in the test with COLO 205, > 50 µM (inactive); in the test on Hs-578T, > 50 µM (inactive); with SF-268 it was > 50 µM (inactive); in the test with IGROV-1, > 50 µM (inactive); in the test with MDA-MB-231 it was > 50 µM (inactive). Moreover, the GI50 in the test with UACC-257, in the test on SK-OV-3, in the test on NCI-H226, in the test on K562, in the test with MDA-MB-435 and in the test with 786-0 was > 50 µM (inactive) in each case. In the test on RXF 393, the GI50 is > 50 µM (inactive).

Regarding `Cc1cc(S(=O)(=O)O)ccc1/N=N/c1c(O)ccc2ccccc12`, the GI50 with DU-145, with RPMI-8226, with NCI/ADR-RES, in the test on BT-549, in the test on CAKI-1 and with M14 was > 100 µM (inactive) in each case. Besides, the GI50 with HCT-15 is > 100 µM; in the test on COLO 205, > 100 µM (inactive); with Hs-578T, > 100 µM (inactive); in the test with SF-268, > 100 µM (inactive); in the test with IGROV-1 it was > 100 µM (inactive); in the test with MDA-MB-231 it was > 100 µM (inactive). The GI50 with UACC-257, with SK-OV-3, with NCI-H226, in the test with K562, in the test on MDA-MB-435 and in the test on 786-0 was > 100 µM (inactive) each time. For the same compound, the GI50 in the test on RXF 393 was > 100 µM (inactive).

On to `Cc1ccc(/C=N/NC2=NCCN2)s1`, for which the GI50 is > 100 µM (inactive) with DU-145; > 100 µM (inactive) with RPMI-8226; > 100 µM (inactive) with NCI/ADR-RES; 23.3 µM (inactive) with BT-549; > 100 µM (inactive) in the test on CAKI-1; > 100 µM (inactive) in the test with M14. The GI50 is > 100 µM with HCT-15; > 100 µM (inactive) with COLO 205; > 100 µM (inactive) in the test on Hs-578T; > 100 µM (inactive) in the test on SF-268; > 100 µM (inactive) in the test on IGROV-1; > 100 µM (inactive) in the test on MDA-MB-231. Further, the GI50 was > 100 µM (inactive) with UACC-257; > 100 µM (inactive) with SK-OV-3; 79.4 µM (inactive) in the test on NCI-H226; 41 µM (inactive) with K562; > 100 µM (inactive) with MDA-MB-435; > 100 µM (inactive) in the test with 786-0. For the same compound, in the test on RXF 393, the GI50 is > 100 µM (inactive).

As for `Cc1ccccc1NC(=S)N/N=C(/c1ccccc1)c1ccccn1`, the GI50 in the test on DU-145 is 0.838 µM (active); in the test on RPMI-8226, < 0.01 µM (active); in the test on NCI/ADR-RES it was < 0.0187 µM (active); in the test on BT-549 it was 2.58 µM (inactive); in the test on CAKI-1, 0.0743 µM (active); in the test with M14, < 0.027 µM (active). In addition, the GI50 in the test with HCT-15 was < 0.01 µM; in the test on COLO 205 it was < 0.01 µM (active); in the test with Hs-578T, 13.2 µM (inactive); with SF-268, 0.0904 µM (active); with IGROV-1 it was < 0.01 µM (active); in the test on MDA-MB-231 it was < 0.01 µM (active). For the same compound, the GI50 is < 0.01 µM (active) in the test on UACC-257; 0.0128 µM (active) in the test with SK-OV-3; 0.0295 µM (active) in the test with NCI-H226; < 0.0282 µM (active) with K562; 0.757 µM (active) in the test on MDA-MB-435; < 0.0214 µM (active) in the test with 786-0. The GI50 in the test with RXF 393 is 0.589 µM (active).

`CC[C@@]1(O)C(=O)OCc2c1cc1n(c2=O)Cc2c-1nc1ccccc1c2/C=N\NC(=O)C[n+]1ccccc1`: the GI50 in the test with DU-145 is 0.0944 µM (active); in the test with RPMI-8226 it was 1.67 µM (inactive); with NCI/ADR-RES, 0.817 µM (active); in the test on BT-549 it was 7.57 µM (inactive); in the test with CAKI-1, 0.151 µM (active); with M14, 0.457 µM (active). Also, the GI50 was 2.9 µM in the test with HCT-15; 12.1 µM (inactive) in the test with COLO 205; > 64.1 µM (inactive) with Hs-578T; 0.115 µM (active) in the test with SF-268; 7.08 µM (inactive) in the test with IGROV-1; 64.6 µM (inactive) in the test on MDA-MB-231. In addition, the GI50 was 2.82 µM (inactive) in the test on UACC-257; 0.617 µM (active) in the test on SK-OV-3; 0.991 µM (active) with NCI-H226; 1.02 µM (active) with K562; 3.56 µM (inactive) in the test with MDA-MB-435; 0.231 µM (active) in the test with 786-0. The GI50 in the test with RXF 393 is 0.76 µM (active).

`Cc1nc2c(=O)n(C)c(=O)nc-2n(CCO)c1C`: the GI50 with DU-145, in the test with RPMI-8226, with NCI/ADR-RES, in the test with BT-549, with CAKI-1 and with M14 was > 100 µM (inactive) throughout. Besides, the GI50 was > 100 µM in the test on HCT-15; > 100 µM (inactive) with COLO 205; > 100 µM (inactive) in the test with Hs-578T; > 100 µM (inactive) in the test on SF-268; > 100 µM (inactive) in the test on IGROV-1; > 100 µM (inactive) in the test on MDA-MB-231. Besides, the GI50 with UACC-257, in the test on SK-OV-3, in the test with NCI-H226, with K562, in the test with MDA-MB-435 and with 786-0 was > 100 µM (inactive) each time. Besides, the GI50 in the test on RXF 393 is > 100 µM (inactive).

Take `O=S(=O)(O)C(Cc1nc2ccccc2[nH]1)S(=O)(=O)OCCC1S(=O)(=O)OCCOS1(=O)=O` (stereo not given): the GI50 in the test with DU-145, in the test on RPMI-8226, with NCI/ADR-RES, in the test with BT-549, with CAKI-1 and with M14 was > 100 µM (inactive) in each case. In addition, the GI50 is > 100 µM with HCT-15; > 100 µM (inactive) in the test on COLO 205; > 100 µM (inactive) with Hs-578T; > 100 µM (inactive) in the test on SF-268; > 100 µM (inactive) with IGROV-1; > 100 µM (inactive) in the test with MDA-MB-231. The GI50 in the test with UACC-257, in the test with SK-OV-3, with NCI-H226, with K562, in the test with MDA-MB-435 and with 786-0 was > 100 µM (inactive) each time. Moreover, the GI50 with RXF 393 was > 100 µM (inactive).

For the origin of these results see ChEMBL document CHEMBL1201862, “PubChem BioAssay data set” (2004).
